Laboratory results reported in paper PMC12163657 (ACS Omega, 2025).

Tests used:
ERα LBD = target: T1, ERα LBD (Homo sapiens, UniProt P03372); experiment: LanthaScreen TR-FRET ERα competitive binding assay
T1 sequence (P03372 311-547 limits assumed): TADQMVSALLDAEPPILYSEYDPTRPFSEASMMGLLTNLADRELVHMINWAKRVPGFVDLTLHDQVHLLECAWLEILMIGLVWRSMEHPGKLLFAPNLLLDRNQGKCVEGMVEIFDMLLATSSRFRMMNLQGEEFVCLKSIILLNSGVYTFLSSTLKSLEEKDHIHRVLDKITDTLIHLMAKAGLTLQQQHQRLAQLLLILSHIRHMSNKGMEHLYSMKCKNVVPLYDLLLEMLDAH

ERα [1] = target: T2, ERα (Homo sapiens, UniProt P03372); experiment: Alkaline phosphatase; type: cell-based; conditions: Ishikawa, read-out: AP % E max, Ishikawa (ECC-1) cells, agonist mode, 72 h
T2 sequence (P03372 1-595): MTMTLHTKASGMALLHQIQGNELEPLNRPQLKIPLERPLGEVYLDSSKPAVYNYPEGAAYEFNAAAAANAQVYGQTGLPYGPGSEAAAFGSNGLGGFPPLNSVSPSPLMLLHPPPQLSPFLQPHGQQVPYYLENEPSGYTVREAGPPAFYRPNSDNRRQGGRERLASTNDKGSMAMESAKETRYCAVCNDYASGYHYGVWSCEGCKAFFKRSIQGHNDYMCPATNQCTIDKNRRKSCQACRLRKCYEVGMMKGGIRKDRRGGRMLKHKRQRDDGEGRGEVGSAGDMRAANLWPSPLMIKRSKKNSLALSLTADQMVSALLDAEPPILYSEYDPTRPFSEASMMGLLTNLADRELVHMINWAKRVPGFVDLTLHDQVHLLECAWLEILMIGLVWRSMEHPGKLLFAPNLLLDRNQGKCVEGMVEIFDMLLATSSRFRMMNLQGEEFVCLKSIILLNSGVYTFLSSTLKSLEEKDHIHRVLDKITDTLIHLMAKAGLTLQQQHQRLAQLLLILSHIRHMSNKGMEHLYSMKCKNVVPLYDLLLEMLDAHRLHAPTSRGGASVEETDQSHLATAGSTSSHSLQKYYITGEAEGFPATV

ERα [2] = target: T2, ERα; experiment: Alkaline phosphatase; type: cell-based
[3] = Mouse hepatocyte stability; type: in vitro ADME; conditions: hepatocytes
[4] = Human hepatocyte stability; type: in vitro ADME; conditions: hepatocytes
[5] = In vivo mouse oral single dose PK; conditions: for total AUCinf / free AUCinf: oral single dose; for free AUCinf: estimated based on the percent free fraction; for Cmax / half-life: plasma, po
[6] = Plasma protein binding, rapid equilibrium dialysis, mouse plasma; type: in vitro ADME; conditions: undiluted plasma
[7] = test system: E2-induced uterine wet weight; experiment: Ovariectomized mouse uterine wet weight study; type: in vivo; conditions: dose giving 50% inhibition of E2-induced uterine wet weight; oral, once daily, 3 days

Structure (SMILES) | IC50 (ERα LBD) | Emax (ERα [1]) | IC50 (ERα [2]) | half-life [3] | hepatocyte CLint [3] | half-life [4] | hepatocyte CLint [4] | also measured
C[C@@H]1Cc2c([nH]c3ccccc23)[C@@H](c2ccc(CCCN3CC(CF)C3)cc2)N1CC(C)(C)F [compound 22, C[C@@H]1Cc2c([nH]c3ccccc23)[C@H](N1CC(C)(C)F)c1ccc(cc1)CCCN1CC(CF)C1] | 1.58 nM | > 50% | – | – | – | – | – | –
C[C@@H]1Cc2c([nH]c3ccccc23)[C@@H](c2ccc(OCCN3CC(CF)C3)cc2)N1CC(C)(C)F [compound 23, C[C@@H]1Cc2c([nH]c3ccccc23)[C@H](N1CC(C)(C)F)c1ccc(cc1)OCCN1CC(CF)C1] | 1.58 nM | – | 1.26 nM | 5.37 h | 4.3 µL/min/1e6 cells | 3.82 h | 6.1 µL/min/1e6 cells | total AUCinf [5]: 2289 ng·h/mL; free AUCinf [5]: 3.9 ng·h/mL; Cmax [5]: 186 ng/mL; half-life [5]: 7 h; fraction unbound at 4 h, 1 µM [6]: 0.0017; uterine wet weight ID50 [7]: <0.1 mg/kg
CCCN1CC(Cc2ccc([C@@H]3c4[nH]c5ccccc5c4C[C@@H](C)N3CC(C)(C)F)cc2)C1 [compound 24, CCCN1CC(C1)Cc1ccc(cc1)[C@H]1N(CC(C)(C)F)[C@H](C)Cc2c1[nH]c1ccccc21] | 3.98 nM | 8.5% | 3.16 nM | – | – | – | – | –
C[C@@H]1Cc2c([nH]c3ccccc23)[C@@H](c2ccc(CCCN3CC(CF)C3)c(F)c2)N1CC(C)(C)F [compound 25, C[C@@H]1Cc2c([nH]c3ccccc23)[C@H](N1CC(C)(C)F)c1ccc(c(c1)F)CCCN1CC(CF)C1] | 3.98 nM | 22% | 7.94 nM | – | – | – | – | –
C[C@@H]1Cc2c([nH]c3ccccc23)[C@@H](c2ccc(OCCN3CC(CF)C3)c(F)c2)N1CC(C)(C)F [compound 26, C[C@@H]1Cc2c([nH]c3ccccc23)[C@H](N1CC(C)(C)F)c1ccc(c(c1)F)OCCN1CC(CF)C1] | 2.51 nM | 2.1% | 2 nM | 3.78 h | 6.1 µL/min/1e6 cells | 4.55 h | 5.1 µL/min/1e6 cells | –
CCCN1CC(Cc2ccc([C@@H]3c4[nH]c5ccccc5c4C[C@@H](C)N3CC(C)(C)F)cc2F)C1 [compound 27, CCCN1CC(C1)Cc1ccc(cc1F)[C@H]1N(CC(C)(C)F)[C@H](C)Cc2c1[nH]c1ccccc21] | 2 nM | 7.4% | 5.01 nM | – | – | – | – | –
CCCN1CC(Oc2ccc([C@@H]3c4[nH]c5ccccc5c4C[C@@H](C)N3CC(C)(C)F)cc2F)C1 [compound 28, CCCN1CC(C1)Oc1ccc(cc1F)[C@H]1N(CC(C)(C)F)[C@H](C)Cc2c1[nH]c1ccccc21] | 3.98 nM | 3.1% | 10 nM | – | – | – | – | –
C[C@@H]1Cc2c([nH]c3ccccc23)[C@@H](c2c(F)cc(CCCN3CC(CF)C3)cc2F)N1CC(C)(C)F [compound 29, C[C@@H]1Cc2c([nH]c3ccccc23)[C@H](N1CC(C)(C)F)c1c(cc(cc1F)CCCN1CC(CF)C1)F] | 2.51 nM | – | – | – | – | – | – | –
C[C@@H]1Cc2c([nH]c3ccccc23)[C@@H](c2c(F)cc(OCCN3CC(CF)C3)cc2F)N1CC(C)(C)F [compound 30, C[C@@H]1Cc2c([nH]c3ccccc23)[C@H](N1CC(C)(C)F)c1c(cc(cc1F)OCCN1CC(CF)C1)F] | – | – | – | > 6 h | < 3.9 µL/min/1e6 cells | 4.5 h | 5.1 µL/min/1e6 cells | total AUCinf [5]: 2090 ng·h/mL; free AUCinf [5]: 0.8 ng·h/mL; Cmax [5]: 112 ng/mL; half-life [5]: 11 h; fraction unbound at 4 h, 1 µM [6]: 0.0004
CCCN1CC(Cc2cc(F)c([C@@H]3c4[nH]c5ccccc5c4C[C@@H](C)N3CC(C)(C)F)c(F)c2)C1 [compound 31, CCCN1CC(C1)Cc1cc(c(c(c1)F)[C@H]1N(CC(C)(C)F)[C@H](C)Cc2c1[nH]c1ccccc21)F] | 5.01 nM | 5.4% | 1.58 nM | > 6 h | < 3.9 µL/min/1e6 cells | > 6 h | < 3.9 µL/min/1e6 cells | –
CCCN1CC(Oc2cc(F)c([C@@H]3c4[nH]c5ccccc5c4C[C@@H](C)N3CC(C)(C)F)c(F)c2)C1 [compound 32, CCCN1CC(C1)Oc1cc(c(c(c1)F)[C@H]1N(CC(C)(C)F)[C@H](C)Cc2c1[nH]c1ccccc21)F] | – | – | – | > 6 h | < 3.9 µL/min/1e6 cells | 5.4 h | 4.3 µL/min/1e6 cells | total AUCinf [5]: 2743 ng·h/mL; free AUCinf [5]: 0.3 ng·h/mL; Cmax [5]: 219 ng/mL; half-life [5]: 15 h; fraction unbound at 4 h, 1 µM [6]: 0.0001
C[C@@H]1Cc2c([nH]c3ccccc23)[C@@H](c2ccc(OC3CN(C)C3)cc2)N1CC(C)(C)F [compound 33, C[C@@H]1Cc2c([nH]c3ccccc23)[C@H](N1CC(C)(C)F)c1ccc(cc1)OC1CN(C)C1] | 0.501 nM | 10% | 7.94 nM | – | – | – | – | –
CCN1CC(Oc2ccc([C@@H]3c4[nH]c5ccccc5c4C[C@@H](C)N3CC(C)(C)F)cc2)C1 [compound 34, CCN1CC(C1)Oc1ccc(cc1)[C@H]1N(CC(C)(C)F)[C@H](C)Cc2c1[nH]c1ccccc21] | 0.501 nM | 4.6% | – | – | – | – | – | –
CCCCN1CC(Oc2ccc([C@@H]3c4[nH]c5ccccc5c4C[C@@H](C)N3CC(C)(C)F)cc2)C1 [compound 35, CCCCN1CC(C1)Oc1ccc(cc1)[C@H]1N(CC(C)(C)F)[C@H](C)Cc2c1[nH]c1ccccc21] | 1.58 nM | 27% | – | – | – | – | – | –
CCCCCN1CC(Oc2ccc([C@@H]3c4[nH]c5ccccc5c4C[C@@H](C)N3CC(C)(C)F)cc2)C1 [compound 36, CCCCCN1CC(C1)Oc1ccc(cc1)[C@H]1N(CC(C)(C)F)[C@H](C)Cc2c1[nH]c1ccccc21] | 2.51 nM | 93% | – | – | – | – | – | –
CCCN1CC(Oc2ccc([C@@H]3c4[nH]c5ccccc5c4C[C@@H](C)N3C[C@H](C)CO)cc2)C1 [compound 37, CCCN1CC(C1)Oc1ccc(cc1)[C@H]1N(C[C@H](C)CO)[C@H](C)Cc2c1[nH]c1ccccc21] | 0.501 nM | 0.7% | 10 nM | – | – | – | – | –
CCCN1CC(Oc2ccc([C@@H]3c4[nH]c5ccccc5c4C[C@@H](C)N3CC(F)(F)CO)cc2)C1 [compound 38, CCCN1CC(C1)Oc1ccc(cc1)[C@H]1N(CC(F)(F)CO)[C@H](C)Cc2c1[nH]c1ccccc21] | 1 nM | 0% | 0.158 nM | 3.83 h | 6 µL/min/1e6 cells | 1.27 h | 18.2 µL/min/1e6 cells | –
CCCN1CC(Oc2ccc([C@@H]3c4[nH]c5ccccc5c4C[C@@H](C)N3CCC(C)(C)O)cc2)C1 [compound 39, CCCN1CC(C1)Oc1ccc(cc1)[C@H]1N(CCC(C)(C)O)[C@H](C)Cc2c1[nH]c1ccccc21] | 1.26 nM | 2% | 398 nM | – | – | – | – | –
CCCN1CC(Oc2ccc([C@@H]3c4[nH]c5ccccc5c4C[C@@H](C)N3C[C@@H](C)CO)cc2)C1 [compound 40, CCCN1CC(C1)Oc1ccc(cc1)[C@H]1N(C[C@@H](C)CO)[C@H](C)Cc2c1[nH]c1ccccc21] | 1.26 nM | 0.4% | 3.16 nM | 3.05 h | 7.6 µL/min/1e6 cells | 2.62 h | 8.8 µL/min/1e6 cells | –
CCCN1CC(Oc2ccc([C@@H]3c4[nH]c5ccccc5c4C[C@@H](C)N3CC(F)(F)COC)cc2)C1 [compound 41, CCCN1CC(C1)Oc1ccc(cc1)[C@H]1N(CC(F)(F)COC)[C@H](C)Cc2c1[nH]c1ccccc21] | 1 nM | 0.9% | 5.01 nM | 1.27 h | 18.2 µL/min/1e6 cells | 1.65 h | 14.1 µL/min/1e6 cells | potency loss in AP (antag.) relative to 38 (ERα [2]; replacing OH with OMe): 1.5 log
CCCN1CC(Oc2ccc([C@@H]3c4[nH]c5ccccc5c4C[C@@H](C)N3CCC(C)(C)F)cc2)C1 [compound 42, CCCN1CC(C1)Oc1ccc(cc1)[C@H]1N(CCC(C)(C)F)[C@H](C)Cc2c1[nH]c1ccccc21] | 15.8 nM | 0% | 50.1 nM | – | – | – | – | –
C[C@]12CC[C@@H]3c4ccc(O)cc4C[C@@H](CCCCCCCCC[S+]([O-])CCCC(F)(F)C(F)(F)F)[C@H]3[C@@H]1CC[C@@H]2O (stereo partly shown) [fulvestrant 3, fulvestrant, reference compound] | – | 0.1% | – | – | – | – | – | –
